Results on 63 molecules are retold here after a melting point compilation (Tetko et al.; mined from patent text by program, amines drawn as free bases though some values may be those of a salt).

Regarding `COc1ccc(C2CC(=O)N(C(=O)Nc3ccc(F)cc3)N2C)cc1OC1CCCC1` (stereo not drawn), the melting point is 123 to 124 °C. For `Cc1c(F)cc(C(=O)NCCC(C)C)cc1-c1ccc(C(=O)NCC(C)(C)C)cc1C(=O)Nc1nccs1` the value was 159 to 164 °C; for `COc1ccc(CCN(C)CCCCc2ccc(NC(=O)c3cccc4c(=O)c5cccc(OC)c5[nH]c34)cc2)cc1OC`, 170 °C; for `COc1cccc2sc(C(N)=O)c(N)c12`, 151 to 153 °C. For `O=C(O)CCc1ccc(OCCSCCO)cc1` the value was 64 to 65 °C. For `CSC(=NC(=O)N(C)C)NC(=O)N(C)C` the value was 116 to 118 °C; for `CC1CN=C2C=CC(c3cccnc3)=NN21` (stereo not drawn), 104 to 105 °C. `COc1cc(OC)cc(N2CCN(C(=S)Nc3cc(C(C)O)c(C)nc3OC)CC2)c1` (stereo not drawn) came in with a melting point of 189 to 190 °C. Under `CCOC(=O)c1cnn(-c2ccc(F)cc2)c1Cl` stands 70 to 72 °C; under `CCOP(=O)(CNC(=O)Nc1c(C(C)C)cccc1C(C)C)OCC`, 132 to 134 °C; under `O=[N+]([O-])c1cn2c(n1)O[C@@H](CN1CCN(Cc3ccc(-c4ccccc4)cc3)CC1)C2`, 207 to 208 °C. Under `CC(=O)c1c(C)[nH]c(CC(C)(C)C)c1C` stands 156 to 163 °C. For `CC(C)n1ccnc1S(=O)(=O)c1ccc(O)cc1` the value was 152 to 153 °C.

In turn, `CCCc1cn2cc(C(=O)OC)nc2s1` displayed a melting point of 155 to 156 °C. In turn, `O=C(CN1CCC(Oc2ccccc2)CC1)Nc1ccc2[nH]c(=O)oc2c1` had a melting point of 190 to 196 °C. For `O=C1c2c(O)ccc(O)c2C(=O)c2c(NCCN(CCO)C(=O)C(F)(F)F)ccc(NCCN(CCO)C(=O)C(F)(F)F)c21` the value was 162 °C; for `CC(Cc1ccc(OCc2ccncc2)cc1)NCC(O)c1cccc(Cl)c1` (stereo not drawn), 85 to 110 °C; for `Cc1cc(C)cc(-c2cn(C)cc(-c3ccccc3)c2=O)c1`, 148 to 150 °C. Under `COC(=O)c1ccc(CNC(=O)OCc2ccccc2)cc1OCc1ccccc1` stands 106 to 107 °C; under `CCNC(=O)N1CCC(c2[nH]nc3c2C(=O)c2c(NC(=O)NN4CCOCC4)cccc2-3)CC1`, 215 to 216 °C. For `COC(=O)[C@@H]1C[C@H](NC(C)=O)C(=O)[C@H]2[C@@]1(C)CC[C@H]1C(=O)O[C@H](c3ccoc3)C[C@]21C` the value was 222 to 224 °C. `CS(=O)(=O)NCCc1ccncc1`: the melting point lay within 114 to 116 °C. With `COC(=O)c1ccc(CN2CCOc3ccc(NC(=O)CC4CCCC4)cc32)c(OC)c1`, the melting point was 152 to 153 °C. Under `CCOC(=O)c1c(O)c2ccc(F)cc2c(=O)n1CC(C)(C)C` stands 92 to 93 °C; under `COC(=O)c1cc2ccc(C(=O)O)cc2[nH]1`, 270 to 272 °C.

In turn, `C#Cc1cc(Cl)cc2c1OC(C(F)(F)F)C(C(=O)O)=C2` (stereo not drawn) came in with a melting point of 186 to 189 °C.

In turn, `CN1C(=O)CCCc2cc(Nc3ncc(Cl)c(NC4CCCCC4C(N)=O)n3)ccc21` (stereo not drawn) gave a melting point of 251 to 253 °C.

`CC(Nc1nnc(-c2ccsc2)c2ccccc12)c1ccccc1` (stereo not drawn) registered a melting point of 144 to 146 °C.

The molecule `COC(=O)CN1CCN(C)c2cc(Nc3ncc(Cl)c(Nc4ccccc4NS(C)(=O)=O)n3)ccc2C1` displayed a melting point of 106 to 124 °C. For `CCNC(=O)CC1CN=C(c2cc3cc(Oc4ccc(S(C)(=O)=O)nc4)cc(OC)c3[nH]2)S1` (stereo not drawn), the melting point lay in the range of 236 to 237 °C. Consider `Cc1nc(-c2cc3cc(OCCNC[C@H](O)c4cccc(Cl)c4)ccc3o2)cs1`, for which the melting point fell in the range of 127 to 129 °C. For `FC(F)(F)c1cc(C(F)(F)F)n2nc(SCc3ccccc3)nc2n1` the value was 78.5 to 80.5 °C; for `COc1cc2c(cc1OC)C(=O)C(Br)C2` (stereo not drawn), 159 to 160 °C. For `Nc1ccccc1-c1csc2nc(C34CC5CC(CC(C5)C3)C4)cn12` the value was 160 to 162 °C.

Take `CCOC(=O)c1c(C(F)(F)F)nc(C(F)F)c(C(=O)OC)c1CS(C)(=O)=O`: the melting point lay within 110 to 112 °C. Under `COC(=O)C=CC1=CC2=CNC=C3CC(N(C)C)C(=C23)CO1` (stereo not drawn) stands 168 to 170 °C; under `CN1CCN(C(=O)Nc2ccc3c(c2Cl)C(c2ccccc2F)=NCC(=O)N3C)CC1`, 154 °C. Under `CSCc1nc(C)cc(O)n1` stands 138 °C; under `O=C(O)c1ccc(-c2cc(-c3ccccc3)on2)cc1`, 297 to 298 °C. Under `CC(C)CCCC(C)C1CCC2C3CC=C4CC(NCCCNC(=O)CCCCCNc5ccc([N+](=O)[O-])cc5[N+](=O)[O-])CCC4(C)C3CCC12C` (stereo not drawn) stands 165 to 166 °C.

With `C=Cc1c(F)c(F)cc(C(=O)O)c1F`, the melting point fell in the range of 108 to 110 °C.

For the molecule `CNc1nc(N(C2CC(C)(C)N(O)C(C)(C)C2)C2CC(C)(C)N(O)C(C)(C)C2)nc(N(C2CC(C)(C)N(O)C(C)(C)C2)C2CC(C)(C)N(O)C(C)(C)C2)n1`, the melting point lay in the range of 254 to 257 °C. Under `CC(=O)Nc1c(C(=O)c2ccccc2)[nH]c2cc(F)ccc12` stands 144 to 145 °C; under `O=C1C(=Cc2ccsc2)CCc2cc(OCCc3c[nH]cn3)ccc21`, 94 to 96 °C; under `Cc1c(Cc2cccc3ccccc23)c(=O)oc2cc(O)cc(O)c12`, 275 to 280 °C. Under `O=C1c2cccc(NCCO)c2OC12CC2` stands 74 to 77 °C; under `CCOC(=O)CC[C@H](NC(=O)c1cc(CCCc2cc3c(=O)[nH]c(N)nc3[nH]2)cs1)C(=O)OCC`, 81 to 82 °C; under `CC(C)(C)OC(=O)N1CC=C(c2ccc(N)cc2F)CC1`, 96 to 98 °C. Under `COc1cc2c(C)c(C)sc2c(Cl)c1Cl` stands 159 to 160 °C; under `NS(=O)(=O)c1cc(C(=O)OCC(=O)N2CCC(CO[N+](=O)[O-])CC2)c(NCc2ccco2)cc1Cl`, 115 to 117 °C; under `O=C(Nc1nnc(C2CC2)o1)C1c2ccccc2Oc2ccccc21`, 246 to 248 °C. In the case of `CCn1c(=O)c2c(nc(/C=C/c3cc4c(c(OC(C)=O)c3)OCO4)n2C)n(CC)c1=O`, the melting point is > 270 °C. `CC(=O)N1CCc2ccc(C(=O)c3cccc(F)c3)cc2C1` gave a melting point of 136 to 139 °C.

As to `COC(=O)c1cccn1CC(I)=C(I)I`, the melting point is 88 to 90 °C. Under `CC(C)CC(CS)C(=O)Nc1cccc(C(=O)O)c1` (stereo not drawn) stands > 200 °C; under `Cc1ccc(N2C(=O)N(CC(=O)O)C(=O)C23CCCCC3)cc1`, 206 °C; under `CC(CN1CCCS1(=O)=O)c1ccncc1` (stereo not drawn), 90 to 92 °C. Under `CSCC(=O)[C@H](CCc1ccccc1)NC(=O)[C@H](CC(C)C)NC(=O)OCc1ccccc1` stands 119 to 120 °C. Under `O=C(O)COc1cc2c(c(Cl)c1Cl)C(=O)C(Cl)(C1CCCCC1)C2` (stereo not drawn) stands 142 to 145 °C; under `CCOC(=O)C(Cc1ccccc1CCBr)(NC(C)=O)C(=O)OCC`, 86 to 86.5 °C; under `CCCCCNc1n[nH]c(C)c1C(=O)OCC`, 117 to 119 °C.

Turning to `Cc1ccc2c(c1)c(C1=C(Br)C(=O)N(C)C1=O)cn2C`, the melting point lay within 107 to 110 °C. Under `Cn1c(=O)c(-c2ccc(Cl)cc2Cl)cc2c3cc(-c4nnc(N)s4)ccc3n(C)c21` stands 321 to 323 °C.
